According to PubChem BioAssay AID686916 (Sanford-Burnham Center for Chemical Genomics, 2013):
Several values for one entry are separate records, joined by “and”; a condition that tells them apart may be missing. Equal entries are not always repeated. Activity calls are given as the source filed them.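 How the source made its calls: active means concentration halving Nedd8 removal by the CSN enzyme IC50 of 60 µM or lower; inactive means the rest.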

target: COP9 signalosome complex subunit 5 (Homo sapiens) (UniProt Q92905); assay: inhibition of CSN cullin-RING ligase deneddylation – biochemical, fluorescence polarization, SCF-Nedd8-OG substrate, set 2, selectivity assay for RPN11 inhibitor project, SAR follow-up (AID 686916); details: Csn5 deneddylation of SCF-Nedd8-OG
Sequence (Q92905 whole entry, looked up, one chain of several): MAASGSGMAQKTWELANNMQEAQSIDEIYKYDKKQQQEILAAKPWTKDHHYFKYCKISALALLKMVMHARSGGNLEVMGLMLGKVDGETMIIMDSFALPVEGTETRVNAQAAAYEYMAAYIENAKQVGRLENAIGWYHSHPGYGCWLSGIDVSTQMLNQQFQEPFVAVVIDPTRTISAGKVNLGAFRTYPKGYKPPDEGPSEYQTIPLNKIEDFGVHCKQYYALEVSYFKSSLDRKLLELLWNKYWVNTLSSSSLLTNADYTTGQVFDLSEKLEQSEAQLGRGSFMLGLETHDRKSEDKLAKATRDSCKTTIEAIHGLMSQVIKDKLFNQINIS

| Compound | IC50 |
| --- | --- |
| O=C(Sc1cccc2cccnc12)c1c(Cl)cccc1Cl | 17.4 µM |
| CCOc1ccccc1C(=O)Sc1cccc2cccnc12 | 11.7 µM and 31.8 µM |
| O=C(Sc1cccc2cccnc12)c1cccc(C(F)(F)F)c1 | > 95 µM (inactive) |
| Cc1ccccc1C(=O)Sc1cccc2cccnc12 | 18.2 µM |
| COC(=O)[C@H](C)NC(=O)c1ccnc2c(SSc3cccc4c(C(=O)N[C@@H](C)C(=O)OC)ccnc34)cccc12 | 22.2 µM |
| CC(C)(C)OC(=O)CCNC(=O)c1cnc2c(SSc3cccc4cc(C(=O)NCCC(=O)OC(C)(C)C)cnc34)cccc2c1 | 26.4 µM |
| O=C(Sc1cccc2cccnc12)c1ccc(F)cc1F | 24.6 µM |
| O=C(Sc1cccc2cccnc12)c1ccccc1F | > 95 µM (inactive) |
| COC(=O)c1cnc2c(SSc3cccc4cc(C(=O)OC)cnc34)cccc2c1 | 20 µM |
| COC(=O)[C@H](CO)NC(=O)c1cnc2c(SSc3cccc4cc(C(=O)N[C@@H](CO)C(=O)OC)cnc34)cccc2c1 | 36.2 µM |
| COC(=O)[C@@H]1CCCN1C(=O)c1cnc2c(SSc3cccc4cc(C(=O)N5CCC[C@H]5C(=O)OC)cnc34)cccc2c1 | 17.6 µM |
| O=C(Sc1cccc2cccnc12)c1ccc2c(c1)OCO2 | 40.1 µM |
| N#Cc1ccc(C(=O)Sc2cccc3cccnc23)cc1 | > 95 µM (inactive) |
| COc1ccccc1C(=O)Sc1cccc2cccnc12 | 20.7 µM and 5.61 µM |
| O=C(Sc1cccc2cccnc12)c1ccccc1I | 19.4 µM |
| O=C(Sc1cccc2cccnc12)c1ccccc1OC(F)(F)F | 17.8 µM |
| Cc1ccc(C(=O)Sc2cccc3cccnc23)cc1 | > 95 µM (inactive) |
| COC(=O)[C@H](C)NC(=O)c1cnc2c(SSc3cccc4cc(C(=O)N[C@@H](C)C(=O)OC)cnc34)cccc2c1 | 20.3 µM |
| N#Cc1cccc(C(=O)Sc2cccc3cccnc23)c1 | 33.3 µM |
| O=C(Sc1cccc2cccnc12)c1ccccc1Cl | 19.9 µM |

More lines, in order of falling IC50, values ahead:

| IC50 | Compound |
| --- | --- |
| 15.6 µM | CC(C)Cc1ccc(C(=O)Sc2cccc3cccnc23)cc1 |
| 14.3 µM | COc1ccc(C(=O)Sc2cccc3cccnc23)cc1OC |
| 14.3 µM | O=C(Sc1cccc2cccnc12)c1cccc2ccccc12 |
| 13.9 µM | COC(=O)[C@H](CC(C)C)NC(=O)c1cnc2c(SSc3cccc4cc(C(=O)N[C@@H](CC(C)C)C(=O)OC)cnc34)cccc2c1 |
| 13.7 µM | COc1ccc(C(=O)Sc2cccc3cccnc23)cc1 |
| 13 µM | O=C(Sc1cccc2cccnc12)c1ccc([N+](=O)[O-])cc1 |
| 13 µM | COC(=O)C[C@H](NC(=O)c1cnc2c(SSc3cccc4cc(C(=O)N[C@@H](CC(=O)OC)C(=O)OC)cnc34)cccc2c1)C(=O)OC |
| 13 µM | C[C@@H](C(=O)O)N(C)C(=O)c1cnc2c(SSc3cccc4cc(C(=O)N(C)[C@@H](C)C(=O)O)cnc34)cccc2c1 |
| 12.8 µM | COC(=O)[C@H](C)N(C)C(=O)c1cnc2c(SSc3cccc4cc(C(=O)N(C)[C@@H](C)C(=O)OC)cnc34)cccc2c1 |
| 12.3 µM | Cc1cccc(C(=O)Sc2cccc3cccnc23)c1 |
| 11.8 µM | COC(=O)[C@@H](NC(=O)c1cnc2c(SSc3cccc4cc(C(=O)N[C@H](C(=O)OC)C(C)C)cnc34)cccc2c1)C(C)C |
| 11.8 µM | CC(C)C[C@H](NC(=O)c1cnc2c(SSc3cccc4cc(C(=O)N[C@@H](CC(C)C)C(=O)O)cnc34)cccc2c1)C(=O)O |
| 11.2 µM | O=C(Sc1cccc2cccnc12)c1ccccc1 |
| 10.4 µM | CCCc1ccc(C(=O)Sc2cccc3cccnc23)cc1 |
| 9.08 µM | O=C(Sc1cccc2cccnc12)c1ccccc1[N+](=O)[O-] |
| 8.57 µM | CC[C@@H](C)[C@H](NC(=O)c1cnc2c(SSc3cccc4cc(C(=O)N[C@H](C(=O)O)[C@H](C)CC)cnc34)cccc2c1)C(=O)O |
| 8.35 µM | CC(C)[C@H](NC(=O)c1cnc2c(SSc3cccc4cc(C(=O)N[C@H](C(=O)O)C(C)C)cnc34)cccc2c1)C(=O)O |
| 7.91 µM | O=C(Sc1cccc2cccnc12)c1ccccc1Br |
| 6.36 µM | O=C(O)[C@@H]1CCCN1C(=O)c1cnc2c(SSc3cccc4cc(C(=O)N5CCC[C@H]5C(=O)O)cnc34)cccc2c1 |
| 5.57 µM | COc1cccc(C(=O)Sc2cccc3cccnc23)c1 |
| 5.25 µM | O=C(Sc1cccc2cccnc12)c1ccc(C(F)(F)F)cc1 |
| 5 µM | COc1ccc(C(=O)Sc2cccc3cccnc23)cc1F |
| 4.92 µM | O=C(Sc1cccc2cccnc12)c1ccc(F)c(F)c1 |
| 4.73 µM | CC[C@@H](C)[C@H](NC(=O)c1cnc2c(SSc3cccc4cc(C(=O)N[C@H](C(=O)OC)[C@@H](C)CC)cnc34)cccc2c1)C(=O)OC |
| 4.28 µM | O=C(O)c1cnc2c(SSc3cccc4cc(C(=O)O)cnc34)cccc2c1 |
| 4.07 µM | O=C(Sc1cccc2cccnc12)C1CCCCC1 |
| 3.12 µM | O=C(Sc1cccc2cccnc12)c1ccc(F)cc1 |
| 2.63 µM | O=C(Sc1cccc2cccnc12)c1cccc(Cl)c1 |
